The subject of the test is Nematospiroides dubius. Description: Evaluation (Efficacy) Test in Mice, Nematospiroides dubius. The class given is in vivo. Particulars: for inhibition in vivo at 0.025 % / inhibition in vivo at 0.1 % / inhibition in vivo at 0.0125 % / inhibition in vivo at 0.05 % / inhibition in vivo at 0.006 %: 168 h; for inhibition in vivo at 0.025 %: 0.025 % diet; for inhibition in vivo at 0.1 %: 0.1 % diet; for inhibition in vivo at 0.05 %: 0.05 % diet. The source says: The primary target parasite of this test is Nematospiroides dubius (Family: Heligmosomidae), which is phylogenetically related to certain economically important parasites of domestic and farm animals. Mice are orally inoculated with 20 to 30 infective N. dubius larvae. Mixed infections are obtained by subsequent inoculation with Aspicularis tetraptera and Hymenolepis nana. Eighteen days after inoculation the mice are divided into groups of four. Each group receives one compound at a specified dose rate, either as a single gavage dose or fed continually in the feed. Four groups of five mice each are utilized as infected, untreated controls. […] Those mice receiving single oral doses (SOD) or a single subcutaneous injection (Sc) of 5 mg./kg. to 100 mg./kg. of animal body weight of the compound under test are treated 22 days after inoculation. Eight days after start of treatment (drug diet) and 4 days post treatment (single dose SOD or Sc), the mice are necropsied, the worms recovered and counted. Percent efficacy for Nematospiroides is calculated using the formula: % Efficacy Equals [formula]
The diet used in the test procedures is a standard commercial mouse chow containing meat and bone meal, dried skimmed milk, wheat germ meal, fish meal, animal liver meal, dried beet pulp, ground extended corn, oat middlings, soybean meal, dehydrated alfalfa meal, cane molasses. animal fat preserved with BHA, vitamin B-12 supplement, calcium panthotenate, choline chloride, folic acid, riboflavin supplement, brewer's dried yeast, thiamine, niacin, vitamin A supplement, D activated plant sterol, vitamin E supplement, dicalcium phosphate, iodized salt, ferric ammonium citrate, iron oxide, manganous oxide, cobalt carbonate, copper oxide and zinc oxide; and the desired level of test compound.
When the drug is administered as a single oral dose, the drug is weighed and suspended in 0.2% agar, thoroughly mixed and orally introduced at the required volume.

The mark [1] stands for this setting: Heligmosomoides polygyrus, po, drug diet, 7 days, read-out: % Efficacy N.d.
The mark [2] stands for this setting: drug diet, 0.0125 % diet, 7 days.
Setting [3] is: Heligmosomoides polygyrus, po, single oral dose, 25 mg/kg, read-out: % Efficacy N.d.
Setting [4] is: drug diet, 0.006 % diet, 7 days.
Setting [5] is: Heligmosomoides polygyrus, po, single oral dose, read-out: % Efficacy N.d.
Where [6] appears, read: Heligmosomoides polygyrus, po, drug diet, 0.0125 % diet, 7 days, read-out: % Efficacy N.d.
Setting [7] is: Heligmosomoides polygyrus, po, single oral dose, 10 mg/kg, read-out: % Efficacy N.d.
[8] abbreviates: Heligmosomoides polygyrus, po, drug diet, 0.006 % diet, 7 days, read-out: % Efficacy N.d.

Like-named read-outs stand apart in the source and are kept apart here.

In the case of `C(=P(c1ccccc1)(c1ccccc1)c1ccccc1)[P+](c1ccccc1)(c1ccccc1)c1ccccc1` [Type II, R1 Phenyl, X Br^-.CuBr2], the inhibition in vivo at 0.025 % under setting [1] was 100%. Further, the inhibition in vivo at 10 mg/kg (Heligmosomoides polygyrus, po, single oral dose, 10 mg/kg, dosage weight is that of the cation, read-out: % Efficacy N.d.) was 43%. Further, for the setting “Heligmosomoides polygyrus, po, single oral dose, 25 mg/kg, dosage weight is that of the cation, read-out: % Efficacy N.d.”, the inhibition in vivo at 25 mg/kg came to 76%. Moreover, the “% Efficacy N.d.” value under setting [2] is recorded as 51%.

`C(=P(c1ccccc1)(c1ccccc1)c1ccccc1)[P+](c1ccccc1)(c1ccccc1)c1ccccc1.[Cl-]` [Type II, R1 Phenyl, X Cl, Triphenyl[(triphenylphosphoranylidene)methyl]-phosphonium Chloride]: the inhibition in vivo at 25 mg/kg under setting [3] came to 96%. Moreover, the “% Efficacy N.d.” value runs as follows: under setting [4], 91%; under setting [2], 100%; (single oral dose, 10 mg/kg) 51%.

Regarding `C(=P(c1ccccc1)(c1ccccc1)c1ccccc1)[P+](c1ccccc1)(c1ccccc1)c1ccccc1.[I-]` [Type II, R1 Phenyl, X I, Triphenyl[(triphenylphosphoranylidene)methyl]-phosphonium Iodide], the “% Efficacy N.d.” value is given as 89% under setting [4]; 100% under setting [2]; 26% (single oral dose, 5 mg/kg); 67% (single oral dose, 10 mg/kg); 91% (single oral dose, 25 mg/kg).

Turning to `C(=P(c1ccccc1)(c1ccccc1)c1ccccc1)[P+](c1ccccc1)(c1ccccc1)c1ccccc1` [Type II, R1 Phenyl, X not printed], the inhibition in vivo at 5 mg/kg (Heligmosomoides polygyrus, po, single oral dose, 5 mg/kg, dosage weight is that of the cation, read-out: % Efficacy N.d.) turned out to be 49%. The “% Efficacy N.d.” value amounted to 85% under setting [4]; 100% under setting [2]; 63% (single oral dose, 10 mg/kg, dosage weight is that of the cation); 94% (single oral dose, 25 mg/kg, dosage weight is that of the cation).

Take `Cc1ccc(P(=C[P+](c2ccccc2)(c2ccccc2)c2ccc(C)cc2)(c2ccccc2)c2ccccc2)cc1` [Type II, R1 p-tolyl, X Br]: under setting [1], the inhibition in vivo at 0.1 % turned out to be 53%. In addition, the inhibition in vivo at 50 mg/kg under setting [5] was found to be 36%. The inhibition in vivo at 100 mg/kg (Heligmosomoides polygyrus, po, single oral dose, 100 mg/kg, read-out: % Efficacy N.d.) worked out at 89%.

Turning to `C=CCC(=P(c1ccccc1)(c1ccccc1)c1ccccc1)[P+](c1ccccc1)(c1ccccc1)c1ccccc1` [Type II, R2 Allyl, X Br], the inhibition in vivo at 0.0125 % under setting [6] turned out to be 33%. For the same molecule, the inhibition in vivo at 0.025 % under setting [1] worked out at 100%. Further, under setting [7], the inhibition in vivo at 10 mg/kg stood at 60%. The inhibition in vivo at 25 mg/kg under setting [3] is 86%. In addition, the inhibition in vivo at 50 mg/kg under setting [5] came out at 100%.

As to `c1ccc(CC(=P(c2ccccc2)(c2ccccc2)c2ccccc2)[P+](c2ccccc2)(c2ccccc2)c2ccccc2)cc1` [Type II, R2 Benzyl, X Br], the inhibition in vivo at 0.0125 % under setting [6] came to 89%. Moreover, under setting [1], the inhibition in vivo at 0.025 % is 96% and the inhibition in vivo at 0.05 % was determined as 100%. Further, the inhibition in vivo at 25 mg/kg under setting [3] worked out at 72%. Besides, the inhibition in vivo at 50 mg/kg under setting [5] was 100%.

For `CSCC(=P(c1ccccc1)(c1ccccc1)c1ccccc1)[P+](c1ccccc1)(c1ccccc1)c1ccccc1` [Type II, R2 CH3 --S--CH2 --, X Cl, [2-(methylthio)-1-(triphenylphosphoranylidene)-ethyl]triphenylphosphonium Chloride], under setting [1], the inhibition in vivo at 0.025 % came out at 56%, the inhibition in vivo at 0.05 % was determined as 65% and the inhibition in vivo at 0.1 % was 97%.

As to `CCC(=P(c1ccccc1)(c1ccccc1)c1ccccc1)[P+](c1ccccc1)(c1ccccc1)c1ccccc1` [Type II, R2 Ethyl, X I], under setting [8], the inhibition in vivo at 0.006 % was 46%. Also, under setting [6], the inhibition in vivo at 0.0125 % is 74%. Under setting [1], the inhibition in vivo at 0.025 % was 100%. Under setting [7], the inhibition in vivo at 10 mg/kg came out at 68%. Moreover, the inhibition in vivo at 25 mg/kg under setting [3] worked out at 75%. Also, the inhibition in vivo at 50 mg/kg under setting [5] is 85%.

In the case of `IC(=P(c1ccccc1)(c1ccccc1)c1ccccc1)[P+](c1ccccc1)(c1ccccc1)c1ccccc1` [Type II, R2 I, X I], the inhibition in vivo at 0.006 % under setting [8] turned out to be 54%. Further, the inhibition in vivo at 0.0125 % under setting [6] was 98%. Also, under setting [1], the inhibition in vivo at 0.025 % came to 100%. Also, the inhibition in vivo at 50 mg/kg under setting [5] is 70%.

Values taken from patent US3957978A, “Phosphonium anti-parasitics” (American Cyanamid Company, priority 1975, dated 1976).
